# From article PMC10056636, “3-Amino-Substituted Analogues of Fusidic Acid as Membrane-Active Antibacterial Compounds” (Membranes, 2023)
# Several values for one entry are separate records, joined by “and”; a condition that tells them apart may be missing. Equal values may be shown once. Read-outs that look alike come from different tables or passages of the source.
# Key:
# [1] = tested on: Acinetobacter baumannii (ATCC 19606); test: Antibacterial whole-cell growth inhibition (MIC, CO-ADD); format: cell-based; details: A. baumannii, two replicates per cell
# Description: (§1) Antibacterial screening was carried out by the serial dilution method. All bacteria were cultured in the cation-adjusted Mueller Hinton broth (CAMHB) at 37 °C overnight. A sample of each culture was then diluted 40-fold in fresh broth and incubated at 37 °C for 1.5–3 h. The resultant mid-log phase cultures were diluted (CFU/mL measured by OD600) and then added into each well containing a test compound, giving a cell density of 5 × 10^5 CFU/mL and a total volume of 50 µL. All the plates were covered and incubated at 37 °C for 18 h without shaking.
# (§2) Inhibition of bacterial growth was determined by measuring the absorbance at 600 nm (OD600) with a Tecan M1000 Pro monochromator plate reader. […]
# [2] = tested on: Escherichia coli (ATCC 25922); test: as above; format: cell-based; details: E. coli, two replicates per cell
# Description: as §1, §2
# [3] = tested on: Pseudomonas aeruginosa (ATCC 27853); test: as above; format: cell-based; details: P. aeruginosa, two replicates per cell
# Description: as §1, §2
# [4] = tested on: Staphylococcus aureus (ATCC 43300) (MRSA); test: as above; format: cell-based; details: S. aureus (MRSA) ATCC 43300, inhibition ≥80%, two replicates (n = 2)
# Description: as §1, §2
# [5] = tested on: human embryonic kidney cell line HEK293 (ATCC CRL-1573); test: in vitro; format: cell-based; details: human, 20 h
# Description: HEK293 cells were counted manually in a Neubauer hemocytometer and then plated in 384-well plates containing the test compounds to give a density of 5000 cells per well in a final volume of 50 µL. DMEM supplemented with 10% FBS was used as the growth medium, and the cells were incubated together with the compounds for 20 h at 37 °C in 5% CO2.
# The cytotoxicity (or cell viability) was measured by fluorescence, ex: 560/10 nm, em: 590/10 nm (F560/590), after addition of 5 µL of 25 µg/mL resazurin (2.3 µg/mL final concentration) and after incubation for further 3 h at 37 °C in 5% CO2. The fluorescence intensity was measured using a Tecan M1000 Pro monochromator plate reader with automatic gain control. The CC50 (50% cytotoxicity concentration) values were calculated by curve fitting of inhibition vs. log(concentration) using a sigmoidal dose–response function, with variable fitting values for bottom, top, and slope. In addition, the maximal percentage of cytotoxicity is reported as DMax, indicating any compounds with partial cytotoxicity. The curve fitting was implemented using Pipeline Pilot’s dose–response component. The results were similar to those obtained by other curve-fitting tools, such as GraphPad’s Prism and IDBS’s XlFit. Any value with > indicated samples with no activity (low DMax value) or samples with CC50 values above the maximum tested concentration (higher DMax value).
# In addition, samples were flagged as partially cytotoxic if DMax ≥ 50%, even for CC50 > the maximum tested concentration.
# Tamoxifen served as a positive cytotoxicity standard. Melittin was used as a positive hemolytic standard.
# Hemolysis assay = format: cell-based, human; details: human, Dmax (maximal percentage of hemolysis)
# Description: (§3) Human whole blood was washed three times with 3 volumes of 0.9% NaCl and then resuspended in the same medium to a concentration of 0.5 × 10^8 cells/mL, as determined by manual cell count in a Neubauer hemocytometer. The washed cells were then added to 384-well plates containing the test compounds to a final volume of 50 µL. After shaking on a plate shaker for 10 min, the plates were incubated for 1 h at 37 °C. After incubation, the plates were centrifuged at 1000× g for 10 min to pellet the cells and debris; 25 µL of the supernatant was then transferred to a polystyrene 384-well assay plate.
# (§4) Hemolysis was monitored by measuring the supernatant absorbance at […] (OD405). The absorbance was measured using a Tecan M1000 Pro monochromator plate reader. HC10 and HC50 (10% and 50% hemolysis concentrations, respectively) were calculated by curve fitting of inhibition vs. log(concentration) using a sigmoidal dose–response function with variable fitting values for top, bottom, and slope. In addition, the maximal percentage of hemolysis is reported as DMax, indicating any compounds with partial hemolysis. The curve fitting was implemented using Pipeline Pilot’s dose–response component. […] Any value with > indicated sample with no activity (low DMax value) or samples with HC10 values above the maximum tested concentration (higher DMax value).
# (§5) In addition, samples were flagged as partially hemolytic if DMax ≥ 50%, even for HC10 > the maximum tested concentration. […]
# human red blood cells = test: Hemolysis assay; format: cell-based; details: human, 1 h
# Description: as §3, §4, §5
# [6] = Ion permeability and rupture of planar lipid bilayers; details: for concentration up to which addition did not increase the ion permeability of the lipid bilayers: DPhPC uncharged membranes; for Cbr (threshold concentration required to rupture the bilayer): DPhPC, 0.1 M KCl, pH 7.4, 100 mV
# Description: (§6) Synthetic 1,2-diphytanoyl-sn-glycero-3-phosphocholine (DPhPC) and 1,2-diphytanoyl-sn-glycero-3-phospho-(1′-rac-glycerol) (DPhPG) were purchased from Avanti® Polar Lipids (Avanti Polar Lipids, Inc., Alabaster, AL, USA). A KCl solution (0.1 M) was buffered with 5 mM HEPES, pH 7.4. Bilayer lipid membranes were prepared from DPhPC or DPhPG using a monolayer-opposition technique on a 50 µm-diameter aperture in a 10 µm-thick Teflon film separating the cis- and trans-compartments of the Teflon chamber. Experiments were performed in chambers containing 0.1 M KCl, 5 mM Hepes-KOH, pH 7.4.
# (§7) The test compounds (4, 20, 22) were added to the cis-chamber as 10 mg/mL solutions in ethanol (to mimic the physiologically relevant conditions) up to the final concentrations and the effects of the compounds on the ion permeability of the model lipid membranes were studied. Ag/AgCl electrodes with 1.5% agarose/2 M KCl bridges were used to apply the transmembrane voltage (V) and measure the transmembrane current (I). ‘Positive voltage’ refers to the case in which the cis-side compartment is positive with respect to the trans-side. All experiments were performed at room temperature.
# (§8) The current was measured using an Axopatch 200B amplifier (Molecular Devices, LLC, Orlean, CA, USA) in voltage clamp mode. Data were digitized using a Digidata 1440A and analyzed using pClamp 10.0 (Molecular Devices, LLC, Orlean, CA, USA) and Origin 8.0 (OriginLab Corporation, Northampton, MA, USA). The data were acquired at a sampling frequency of 5 kHz using low-pass filtering at 200 Hz.
# (§9) The threshold concentrations (Cbr) of the derivatives required to rupture the bilayers composed of DPhPC or DPhPG at a transmembrane voltage of 100 mV were determined. Cbr-values were averaged from 3 to 4 bilayers and presented as mean ± standard error (p ≤ 0.05).
# [7] = Ion permeability, pore formation and rupture of planar lipid bilayers; details: for formation of ion-permeable pores: DPhPG bilayers; for Cbr (threshold concentration required to rupture the bilayer): 0.1 M KCl, pH 7.4, 100 mV
# Description: as §6, §7, §8, §9
# Pore-forming ability of compound 22 was studied by applying transmembrane voltages in a range of 50–200 mV with 50 mV step and by increasing the derivative concentration in the bilayer bathing solution from 10 to 150 µg/mL.
# [8] = Acinetobacter baumannii, ATCC19606, read-out: MIC
# [9] = Escherichia coli, ATCC25922, read-out: MIC
# [10] = Pseudomonas aeruginosa, ATCC27853, read-out: MIC
SMILES,MIC [1] [µg/mL],"MIC [1, 8] [µg/mL]",MIC [2] [µg/mL],"MIC [2, 9] [µg/mL]",MIC [3],"MIC [3, 10] [µg/mL]",MIC [4],CC50 [5] [µg/mL],hemolysis at 1 h (Hemolysis assay) [%],Dmax (maximal percentage of hemolysis) (human red blood cells) [%],concentration up to which addition did not increase the ion permeability of the lipid bilayers [6] [µg/mL],Cbr (threshold concentration required to rupture the bilayer) [6] [µg/mL],concentration up to which ionic permeability of lipid bilayers is not affected ([7]; DPhPG) [µg/mL],formation of ion-permeable pores [7],Cbr (threshold concentration required to rupture the bilayer) ([7]; DPhPG) [µg/mL],"MIC ([4]; Staphylococcus aureus, read-out: MIC) [µg/mL]",HC50 (human red blood cells),concentration from which (up to Cbr) stepwise current fluctuations are produced ([7]; DPhPG) [µg/mL],"amplitude of the stepwise current fluctuations ([7]; DPhPG, pores induced by the compound)"
"COC(=O)/C(CCC=C(C)C)=C1\[C@@H](OC(C)=O)C[C@@]2(C)[C@@H]1C[C@@H](O)[C@@H]1[C@@]3(C)CC[C@H](NCCCNCCCCN)[C@@H](C)C3CC[C@@]12C (stereo partly drawn) [Compound 20, Methyl (2Z)-2-[(3β,4α,8α,11α,14β,16β)-16-(acetyloxy)-3-({3-[(4aminobutyl)amino]propyl}amino)-11-hydroxy-4,8,10,14-tetramethylgonan-17-ylidene]-6-methylhept-5-enoate]",32,32,32,32,>32 >32 µg/mL,> 32,4.0 µg/mL and 8.0 µg/mL,14.9,61.8,60.5,≤ 275,275 ± 25,≤ 200,not able to form transient ion-permeable pores,190 ± 13,,,,
"COC(=O)/C(CCC=C(C)C)=C1\[C@@H](OC(C)=O)C[C@@]2(C)[C@@H]1C[C@@H](O)[C@@H]1[C@@]3(C)CC[C@H](NCCCNCCCCNCCCN)[C@@H](C)C3CC[C@@]12C (stereo partly drawn) [Compound 22, Methyl (2Z)-2-[(3β,4α,8α,11α,14β,16β)-16-(acetyloxy)-3-{[3-({4-[(3-aminopropyl)amino]butyl}amino)propyl]amino}-11-hydroxy-4,8,10,14-tetramethylgonan-17-ylidene]-6-methylhept-5-enoate]",32,32,32,32,32 µg/mL,32,,18.1,15.1,11.3,≤ 250,250 ± 11,,able to produce stepwise current fluctuations,135 ± 10,2,>32 >32 µg/mL,35 to 40,20–160 pS
